pKi: −log10 of the molar value.
Target: T1, Dihydroorotase (Escherichia coli (strain K12), UniProt P05020)
T1 sequence (P05020 whole entry): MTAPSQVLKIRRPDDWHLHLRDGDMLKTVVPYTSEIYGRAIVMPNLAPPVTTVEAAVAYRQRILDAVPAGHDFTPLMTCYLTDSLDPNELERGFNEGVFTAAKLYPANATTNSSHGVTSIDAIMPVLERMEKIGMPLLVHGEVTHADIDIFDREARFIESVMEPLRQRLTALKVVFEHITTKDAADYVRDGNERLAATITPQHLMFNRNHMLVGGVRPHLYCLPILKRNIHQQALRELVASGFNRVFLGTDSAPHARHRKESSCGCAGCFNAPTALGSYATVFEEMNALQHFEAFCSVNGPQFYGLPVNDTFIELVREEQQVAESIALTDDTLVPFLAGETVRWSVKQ
Assay: Inhibition Assay
Settings: pH 7
Description: The DHO-catalyzed hydrolysis of dihydrooroate was monitored spectrophotoetrically at 230 and 280 nm using a SPECTRAmax (Molecular Device) plate reader.

Compound: O=C1CC(=O)N[C@H](C(=O)O)C1 [4,6-dioxo-piperidine-2-carboxylic acid, 3]
- pKi: 1.12

From BindingDB's records for doi:10.1016/j.bioorg.2005.08.001 (Texas A&M University, 2005)
